The source of these data is US20260232643A1, “METHODS OF TREATING SOLID TUMORS WITH MITOGEN ACTIVATED PROTEIN KINASE (MAPK) PATHWAY ALTERATIONS” (Jazz Pharmaceuticals Ireland Limited, priority 2023, published 2026).

For one data set, the target named is T1, ARAF WT (Homo sapiens, UniProt P10398).
T1 sequence (P10398 1-606): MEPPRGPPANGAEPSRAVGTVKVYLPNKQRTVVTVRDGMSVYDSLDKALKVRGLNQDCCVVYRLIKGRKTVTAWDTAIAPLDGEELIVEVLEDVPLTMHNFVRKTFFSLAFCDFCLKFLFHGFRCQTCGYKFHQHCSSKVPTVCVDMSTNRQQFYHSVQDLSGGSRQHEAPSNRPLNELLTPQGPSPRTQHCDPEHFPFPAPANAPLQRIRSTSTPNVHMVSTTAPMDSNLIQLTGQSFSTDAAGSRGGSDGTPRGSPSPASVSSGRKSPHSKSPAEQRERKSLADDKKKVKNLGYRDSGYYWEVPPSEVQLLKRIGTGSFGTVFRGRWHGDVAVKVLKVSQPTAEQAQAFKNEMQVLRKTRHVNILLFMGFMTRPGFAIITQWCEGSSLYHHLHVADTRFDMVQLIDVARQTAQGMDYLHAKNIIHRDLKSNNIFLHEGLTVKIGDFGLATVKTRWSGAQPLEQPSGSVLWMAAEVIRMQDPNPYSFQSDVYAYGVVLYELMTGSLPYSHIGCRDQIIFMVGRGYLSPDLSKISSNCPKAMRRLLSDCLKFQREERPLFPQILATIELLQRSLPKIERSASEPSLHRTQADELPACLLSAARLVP
Description: PanQinase flash plate-based kinase assay.

The target in another data set is T2, ARAF G377R (Homo sapiens, UniProt P10398, G377R).
T2 sequence (P10398 1-606 G377R): T1 sequence (P10398 1-606) with G377R
Nature of the data set: PanQinase flash plate-based kinase assay.

A further data set has as its target T3, ARAF del 347_348 (Homo sapiens, UniProt P10398, DEL347-348).
T3 sequence (P10398 with tags, fused parts or gaps DEL347-348): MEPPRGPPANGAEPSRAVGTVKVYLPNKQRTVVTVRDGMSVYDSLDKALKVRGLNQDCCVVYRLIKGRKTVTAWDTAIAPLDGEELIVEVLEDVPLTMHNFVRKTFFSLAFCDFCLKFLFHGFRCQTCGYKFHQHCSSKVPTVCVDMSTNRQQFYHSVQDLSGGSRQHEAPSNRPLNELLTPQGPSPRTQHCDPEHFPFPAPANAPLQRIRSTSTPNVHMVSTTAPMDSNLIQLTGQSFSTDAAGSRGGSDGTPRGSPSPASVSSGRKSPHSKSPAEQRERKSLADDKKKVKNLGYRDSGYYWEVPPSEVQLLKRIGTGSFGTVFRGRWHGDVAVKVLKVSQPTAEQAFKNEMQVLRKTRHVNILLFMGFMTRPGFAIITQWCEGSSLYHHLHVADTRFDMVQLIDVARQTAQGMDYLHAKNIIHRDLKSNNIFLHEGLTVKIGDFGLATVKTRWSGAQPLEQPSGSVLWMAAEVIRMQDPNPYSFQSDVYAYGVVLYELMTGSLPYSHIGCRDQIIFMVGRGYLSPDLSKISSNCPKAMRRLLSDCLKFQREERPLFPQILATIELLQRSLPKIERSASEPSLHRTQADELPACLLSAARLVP
Nature of the data set: PanQinase flash plate-based kinase assay.

The target of the next data set is T4, ARAF del 347_348 G387D (Homo sapiens, UniProt P10398, DEL347-348/G387D).
T4 sequence (P10398 with tags, fused parts or gaps DEL347-348/G387D): T3 sequence (P10398 with tags, fused parts or gaps DEL347-348) with G385D
Nature of the data set: PanQinase flash plate-based kinase assay.

The target in the next data set is BRAF WT (Homo sapiens, UniProt P15056). Nature of the data set: PanQinase flash plate-based kinase assay.
A further data set deals with BRAF V600E (Homo sapiens, UniProt P15056, V600E). Description: PanQinase flash plate-based kinase assay.
The target in the next data set is CRAF WT (Homo sapiens, UniProt P04049, Y340D/Y341D). Description: PanQinase flash plate-based kinase assay.
Another data set concerns Sprague Dawley rats. The settings on record: 0, 10, 20, or 45 mg/kg/day once daily via oral gavage. The procedure:
(§1) Compound I was evaluated in GLP-compliant 28-day oral toxicity studies in 2 preclinical species, Sprague Dawley rats and beagle dogs. In the rat 28-day study, Compound I was administered at 0, 10, 20, or 45 mg/kg/day once daily via oral gavage. […] In the dog 28-day study, Compound I was administered at 0, 3.75, 7.5, or 15 mg/kg/day once daily via oral gavage.

A further data set deals with beagle dogs. The settings on record: 0, 3.75, 7.5, or 15 mg/kg/day once daily via oral gavage. The procedure: as §1
Data set [1] deals with RAS (NRAS and KRAS) and RAF (BRAF Class 2/3) mutation driven colorectal cancer, non-small cell lung cancer, melanoma, and ovarian cancer xenografts. Nature of the data set: Tumor growth inhibition in xenograft mice models. The data set is classed as in vivo. Conditions: 10 mg/kg BID, 30 mg/kg BID, 30 mg/kg QD, 100 mg/kg QD, FIGS. 1A-E.
Description: Vehicle was administered BID as a control.
The effect of Compound I in tumor growth inhibition was evaluated in xenograft mice models carrying pathogenic RAS (NRAS and KRAS) and RAF (BRAF Class 2/3) mutation driven colorectal cancer, non-small cell lung cancer, melanoma, and ovarian cancer.
Data set [2] concerns metastatic NRASQ61 mutated melanoma. The data set is classed as in vivo, human. The procedure:
This is a phase 1 study of Compound I in participants with advanced or metastatic solid tumors harboring alterations in the MAPK pathway. The study comprises 2 parts: dose exploration (Part A) and expansion (Part B).
Compound I (i.e., (S)-5-((3-(4-(4-fluorophenyl)-1H-imidazol-2-yl) chroman-6-yl)oxy)-3,4-dihydro-1,8-naphthyridin-2 (1H)-one) is orally administered to participants BID in a capsule formulation with unit dose strengths of 10 mg or 25 mg, taken approximately 12 hours apart in the morning and in the evening. Specifically, in Part A, Compound I is administered as a single dose on Cycle 1 Day 1, with no doses administered on Days 2 and 3 before proceeding with BID dosing on Day 4 and after.
Tumor response to therapy will be assessed by the investigator using RECIST v1.1. Tumor assessments will be made by CT/MRI/PE at Screening, on Day 1 of Cycle 3 (Day 57), and every 2 cycles (56 days) thereafter until Dayl of Cycle 13, after which tumor assessments will be every 3 cycles (84 days) and at the End of Treatment Visit. Tumor assessments will include all known or suspected disease sites. Imaging must include chest, abdomen, and pelvis CT or MRI scans. Imaging will be performed on the abdomen, chest, pelvis, and the site of the primary tumor if it is located elsewhere.
Dosing regimens: To assess the safety and efficacy of Compound I in the cancer treatment, Compound I was orally administered to participants at 20 mg BID (“bis in die”, or “twice a day”), 30 mg BID, 50 mg BID, 50 mg QD (“quaque die”, “once a day”), 75 mg BID, or 100 mg QD for a period of time. Treatment-related adverse events (TRAE, Grade≤2 and Grade ≥3) were monitored and recorded. The efficacy of Compound I in treating cancer was determined by using radiologic tumor assessment as per RECIST v1.1 (e.g., PET-CT or MRI scans).

Changes are numbered by the printed parent chain. “And” between values parts separate entries of the source, which are not always exact repeats. Equal values may be shown once. Read-outs that look alike come from different tables or passages of the source.

Sequence of BRAF V600E (P15056 whole entry V600E): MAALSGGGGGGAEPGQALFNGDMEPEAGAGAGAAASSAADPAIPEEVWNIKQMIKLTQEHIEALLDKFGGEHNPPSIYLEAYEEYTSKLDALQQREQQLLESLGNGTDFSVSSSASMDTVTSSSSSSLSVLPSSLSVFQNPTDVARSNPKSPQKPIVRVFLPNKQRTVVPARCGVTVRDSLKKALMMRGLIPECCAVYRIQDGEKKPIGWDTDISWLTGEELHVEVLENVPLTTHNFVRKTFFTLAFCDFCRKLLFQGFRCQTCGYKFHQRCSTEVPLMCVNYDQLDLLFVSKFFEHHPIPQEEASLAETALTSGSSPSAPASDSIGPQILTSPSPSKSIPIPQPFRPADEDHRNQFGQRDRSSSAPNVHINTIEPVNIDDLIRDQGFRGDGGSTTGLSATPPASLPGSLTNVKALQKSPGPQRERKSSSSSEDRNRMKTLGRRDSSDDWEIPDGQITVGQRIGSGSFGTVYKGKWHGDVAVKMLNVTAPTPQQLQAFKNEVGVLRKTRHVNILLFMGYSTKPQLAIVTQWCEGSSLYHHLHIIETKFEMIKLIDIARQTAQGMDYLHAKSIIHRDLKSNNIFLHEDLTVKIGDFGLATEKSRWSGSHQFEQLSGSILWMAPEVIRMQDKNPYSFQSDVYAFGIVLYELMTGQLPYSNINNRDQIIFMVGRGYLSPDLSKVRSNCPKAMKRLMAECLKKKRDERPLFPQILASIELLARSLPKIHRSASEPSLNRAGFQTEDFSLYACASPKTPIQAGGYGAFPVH
Sequence of BRAF WT (P15056 whole entry): as the sequence (P15056 whole entry V600E) above, with E600V counted along it
Sequence of CRAF WT (P04049 307-648 Y340D/Y341D): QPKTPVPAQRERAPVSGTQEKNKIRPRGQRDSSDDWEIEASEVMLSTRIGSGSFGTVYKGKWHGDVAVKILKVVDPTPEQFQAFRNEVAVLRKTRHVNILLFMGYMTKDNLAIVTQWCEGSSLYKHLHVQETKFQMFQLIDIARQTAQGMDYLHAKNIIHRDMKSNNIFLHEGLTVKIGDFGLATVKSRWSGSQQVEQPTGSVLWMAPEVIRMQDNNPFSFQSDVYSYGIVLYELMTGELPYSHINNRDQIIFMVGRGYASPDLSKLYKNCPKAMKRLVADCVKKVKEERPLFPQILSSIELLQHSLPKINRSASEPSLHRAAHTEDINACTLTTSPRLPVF

In general, IC50 refers to the midpoint of a concentration-inhibition curve. Read a low IC50 as greater potency in that assay. As to `Cc1ccc(NC(=O)c2ccnc(C(F)(F)F)c2)cc1-c1cc(OCCO)nc(N2CCOCC2)c1` [Naporafenib], the concentration for half-maximal inhibition (IC50) stood at 63.5 nM against ARAF WT; 621 nM against ARAF G377R; 154 nM against ARAF del 347_348; 67.2 nM on ARAF del 347_348 G387D; 141 nM against BRAF WT; 191 nM on BRAF V600E. This molecule had an IC50 against CRAF WT of 9.7 nM.

Take `Cc1ccc2c(Nc3cccc(Cl)c3F)nccc2c1NC(=O)c1csc2c(N)ncnc12` [Belvarafenib]: the IC50 against ARAF WT was 26 nM; against ARAF G377R, 754 nM; against ARAF del 347_348, 60.3 nM; at ARAF del 347_348 G387D, 46.5 nM; against BRAF WT, 97.2 nM; at BRAF V600E, 193 nM. On CRAF WT, the half-inhibitory concentration (IC50) was determined as 9.1 nM.

`O=C1CCc2c(Oc3ccc4c(c3)CC(c3ncc(-c5ccc(F)cc5)[nH]3)CO4)ccnc2N1` (stereo not drawn) [Compound I, 5-((3-(4-(4-fluorophenyl)-1H-imidazol-2-yl)chroman-6-yl)oxy)-3,4-dihydro-1,8-naphthyridin-2 (1H)-one]: the “predicted human Vss” value was 0.77 L/kg. Also, in the data set on Sprague Dawley rats, the “findings in 28-day oral toxicity study” value was “No mortality, and no clinical signs, changes in body weight or food consumption, ophthalmology, clinical pathology or macroscopic findings of toxicological relevance were noted”. The “findings in 28-day oral toxicity study” value with beagle dogs is “No mortality, and no clinical signs, changes in body weight or food consumption, ophthalmology, ECG, clinical pathology, macroscopic or microscopic findings of toxicological relevance were noted”. The tumor growth inhibition result in [1] is given as “dose-dependent tumor growth inhibition effect”. In addition, the “reduction in target lesions” value in [2] (after 2 months, n=1, metastatic NRASQ61 mutated melanoma, 50 mg QD) was determined as 61%. Further, the “reduction in the target lesion” value in [2] (after 4 months (confirmation of PR), n=1, metastatic NRASQ61 mutated melanoma, 50 mg QD) was 69%. Also, in data set [2] (n=1, metastatic NRASQ61 mutated melanoma, 50 mg QD, FIG. 3), the “PET avidity (PET/CT)” value is listed as “significant resolution of PET avidity”. Moreover, the “tumor response per RECIST v1.1” value in data set [2] (participant (n=1), metastatic NRASQ61 mutated melanoma, 50 mg QD oral) is “partial response (PR)”. For the same molecule, under “allometrically scaled”, the “predicted human CL” value is 1.2 mL/min/kg. Moreover, on ARAF WT (average IC50 ARAF WT, PanQinase flash plate assay, kinase dead MEK K97M substrate, 0.1-3 μM ATP), the IC50 is 15.7 nM and 11.4 nM. Moreover, half-maximal inhibition against ARAF G377R (IC50) required 142 nM. This molecule also gave a half-maximal inhibitory concentration (IC50) against ARAF del 347_348 of 68.3 nM. This molecule also displayed an IC50 on ARAF del 347_348 G387D of 20.4 nM. Moreover, it took 40.6 nM to reach half-maximal inhibition against BRAF WT (IC50). This molecule also returned an IC50 against BRAF V600E of 40.2 nM. At CRAF WT, the IC50 was 2.3 nM.
